# According to patent US6284758A, “Angiogenesis promoters and angiogenesis potentiators” (priority 1997, dated 2001):
# Assays:
# [1] = system: rat sponge model (angiogenic effect of b-FGF); experiment: Potentiation of angiogenic effect of b-FGF by compound A in rat sponge model (b-FGF 1 μg/sponge); type: in vivo; conditions: for Hemoglobin in sponge at 4 days after embedding: mean±standard error, number of animals 10
# Method: (§1) The test animal models were prepared in the same manner as in Experimental Example 1.
# As a reagent, compound A (4-bromo-6-[3-(4-chlorophenyl)-propoxy]-5-(3-pyridylmethylamino)-3-(2H)-pyridazinone hydrochloride, 50 mg) produced by a conventional method was suspended in 0.5% methylcellulose solution (100 ml) in a mortar and used.
# The vehicle (0.5% methylcellulose solution) was obtained by dissolving methylcellulose (5 g, manufactured by Kishida Chemical Industries, Ltd.) in distilled water (1000 ml).
# A 0.1% bovine serum albumin (BSA)-physiological saline solution was prepared by dissolving BSA (0.1 g, Sigma) in physiological saline (100 Ml).
# A b-FGF solution was prepared by dissolving recombinant b-FGF (20 μg, manufactured by BTI) in 0.1% BSA-physiological saline solution (2 ml).
# A hemostatic gelatin sponge was the same as that used in Experimental Example 1.
# The test group was divided into 3 groups. A sponge wetted with 100 μl of 0.1% BSA-physiological saline solution was embedded in group 1. A sponge (1 μg b-FGF/sponge) wetted with b-FGF solution (100 μl) was embedded in group 2 and group 3.
# The vehicle was orally administered to group 1 and group 2, and the reagent (compound A) was orally administered to group 3 repeatedly from the day of sponge embedding at the dose of 10 ml/kg twice a day for 4 days.
# In every test group, the administration began from the evening (single administration) of the very day of embedding. The time of administration of the drug was around 9 a.m. for the first administration and around 7 p.m. for the second administration. In consideration of the effect of the drug, the drug was not administered on the very day of sponge removal (7 times of administration in total).
# After 4 days from the embedding, an excess amount of pentobarbital was intravenously injected to the animals for euthanasia. The back was opened, and the tissue surrounding the embedded sponge was removed and the surface of the sponge was photographed. The sponge was taken out and hemoglobin in the sponge was calculated in the same manner as in Experimental Example 1.
# The obtained data were expressed in mean±standard error. For the evaluation of the angiogenic effect, a multiple comparison test by Tukey method was performed to examine significant difference. The significance was ascribed at less than 5% risk rate.
# [2] = system: rat sponge model (angiogenesis); experiment: Relationship between dose and angiogenesis promotion by compound A in rat sponge model; type: in vivo; conditions: for Hemoglobin amount in sponge vs vehicle (in words): 7 times in total, Dunnett test
# Method: as §1
# As a reagent, compound A (4-bromo-6-[3-(4-chlorophenyl)-propoxy]-5-(3-pyridylmethylamino)-3-(2H)-pyridazinone hydrochloride, 35 mg) produced by a conventional method was suspended in 0.5% methylcellulose solution (70 ml) in a mortar and used as a 5 mg/kg administration reagent.
# This suspension was diluted two-fold and 5-fold with a vehicle (0.5% methylcellulose solution) to give 2.5 mg/kg administration reagent and 1 mg/kg administration reagent (respective dose 10 ml/kg). The vehicle (0.5% methylcellulose solution) was used as a control. The vehicle was obtained by dissolving methylcellulose (5 g, manufactured by Kishida Chemical Industries, Ltd.) in distilled water (1000 ml).
# Each reagent (compound A) and the vehicle were orally administered repeatedly (7 times in total) from the day of sponge embedding at a dose of 10 ml/kg twice a day for 4 days. The sponge was removed on the next day of the final administration, and hemoglobin in the sponge was calculated in the same manner as Experimental in Example 1.
# Each group contained […] animals and the obtained data were expressed in mean±standard error. For the evaluation of the angiogenic effect, a Dunnett test was performed using the vehicle administration group as a control to examine significant difference. The significance was ascribed at less than 5% risk rate.
# [3] = Acute toxicity, oral, rat; conditions: in vivo, oral administration
# rat and dog = experiment: Acute toxicity, oral, rat and dog (overall finding); type: in vivo; conditions: oral administration
# [4] = Hypotensive action in rat; type: in vivo; conditions: 5 mg/kg, based on vasodilating action
# [5] = system: rat sponge model (angiogenesis); experiment: Angiogenesis promotion by compound A in rat sponge model (embedded gelatin sponge; hemoglobin in sponge and photograph); type: in vivo
# Method: Rats were anesthetized by intraperitoneal administration of sodium pentobarbital (50 mg/kg), and the dorsal median line was incised for about 1 cm and an air pocket was made subcutaneously at about 2.5 cm toward the tail side with a Kocher clamp. A hemostatic gelatin sponge (Spongel®, 10 mm×10 mm×7 mm; manufactured by Yamanouchi Pharmaceutical Co., Ltd.) impregnated with physiological saline was embedded therein. The opening was sutured and antisepticized to give a test animal model.
# As a reagent, compound A (4-bromo-6-[3-(4-chlorophenyl)-propoxy]-5-(3-pyridylmethylamino)-3-(2H)-pyridazinone hydrochloride, 100 mg) produced by a conventional method was suspended in 0.5% methylcellulose solution (100 ml) in a mortar and used.
# As a control, a vehicle (0.5% methylcellulose solution) was used. The vehicle was obtained by dissolving methylcellulose (5 g, manufactured by Kishida Chemical Industries, Ltd.) in distilled water (1000 ml).
# The reagent (compound A) and the vehicle were orally administered repeatedly from the day of sponge embedding at a dose of 10 ml/kg once a day for 4 days or 7 days. The administration was performed 30 minutes before anesthetizing the animal on the very day of embedding, and the sponge was removed on the next day of the final administration.
# After 4 days or 7 days from the embedding, an excess amount of pentobarbitalwas intravenously injected to the animals for euthanasia. The back was opened, and the tissue surrounding the embedded sponge was removed and the surface of the sponge was photographed. The sponge was taken out and placed in a 0.1M aqueous ammonia (2 ml), which was stood for 4 hr to extract hemoglobin in the sponge. The extract (100 μl) was taken, and hemoglobin was quantitated using an assay kit (hemoglobin B-TESTWAKO; manufactured by Wako Pure Chemical Industries, Ltd.) and used as the index of angiogenesis. The amount of hemoglobin in the sponge was calculated by the following formula.
# Amount of hemoglobin in sponge (mg/sponge)=hemoglobin (mg) in extract (100
# μl)×20 (total extract 2 ml)
# The obtained data were expressed in mean±standard error. For the evaluation of the angiogenic effect, an unpaired t-test was performed using the animals administered with the drug for 4 days or 7 days and respective vehicle groups as control to examine significant difference. The significance was ascribed at less than 5% risk rate.
# [6] = Acute toxicity, oral, dog; conditions: in vivo, oral administration
# [7] = day 4 and day 7, also seen with vehicle
Compound,"Observation of photograph: neovascularized blood vessels ([1]; day 4, group 2 (b-FGF single administration) vs group 1 (BSA-physiological saline))","Hemoglobin in sponge at 4 days after embedding ([1]; group 2: b-FGF (1 μg/sponge) in sponge, vehicle orally, group 1 (BSA-saline) 5.503 ± 0.562)",Hemoglobin amount in sponge vs vehicle (in words) ([2]; 2.5 mg/kg orally twice a day),Hemoglobin amount in sponge vs vehicle (in words) ([2]; 5 mg/kg orally twice a day),"Effect at 5 mg/kg on hemoglobin amount, tendency (in words) ([2]; 5 mg/kg, postulated due to decrease in blood flow from hypotensive action)",Angiogenesis promotion effect at a dose substantially free from hypotensive action (in words) ([2]; rat),LD50 [3],Toxicity (in words) (rat and dog),Hypotensive action [4],"Time course of amount of hemoglobin in sponge (in words) [5, 7]","Time course of neovascularized blood vessels on the sponge surface (in words) [5, 7]",Amount of hemoglobin in sponge vs vehicle (in words) ([5]; day 7 of the test),"Observation of photograph: neovascularized blood vessels on the sponge surface ([5]; day 7 of the test, vs vehicle administration group)","Hemoglobin in sponge, 4 days after embedding ([5]; oral, 10 ml/kg (100 mg/100 ml suspension) once a day for 4 days, mean±standard error, number of animals 10, vehicle 6.216 ± 0.903)","Hemoglobin in sponge, 7 days after embedding ([5]; oral, 10 ml/kg (100 mg/100 ml suspension) once a day for 7 days, mean±standard error, number of animals 9, vehicle 9.585 ± 0.774, **p < 0.01 relative to vehicle, unpaired t-test)","Observation of photograph: neovascularized blood vessels ([1]; day 4, group 3 (b-FGF and compound A, 5 mg/kg, co-administration) vs group 2 (b-FGF alone))","Hemoglobin content vs group 1 and group 2 (in words) ([1]; group 3 (b-FGF and compound A, 5 mg/kg, co-administration), day 4)","Hemoglobin in sponge at 4 days after embedding ([1]; group 3: compound A 5 mg/kg orally twice a day (7 times in total) plus b-FGF (1 μg/sponge) in sponge, p < 0.01 relative to group 1 and group 2 (Tukey method))",LD50 [6]
"b-FGF: recombinant b-FGF (20 μg, manufactured by BTI); basic fibroblast growth factor",visually showed more neovascularized blood vessels than in group 1,7.285 mg/sponge,,,,,,,,,,,,,,,,,
"Cl.O=c1[nH]nc(OCCCc2ccc(Cl)cc2)c(NCc2cccnc2)c1Br [compound A, 4-bromo-6-[3-(4-chlorophenyl)-propoxy]-5-(3-pyridylmethylamino)-3-(2H)-pyridazinone hydrochloride]",,,showed a significant increase in hemoglobin amount,showed a significant increase in hemoglobin amount,"the effect tended to weaken somewhat, though a significant difference was found",superior angiogenesis promotion effect at a dose substantially free from hypotensive action,≥ 2000 mg/kg,extremely low toxic,causes hypotensive action in rat,"showed an increase in the amount of hemoglobin in sponge at day 4 and day 7 of the test, in proportion to the number of days lapsed",showed an increase of neovascularized blood vessels on the sponge surface at day 4 and day 7 of the test in proportion to the number of days lapsed,showed a significant increase as compared to the vehicle administration group,showed more neovascularized blood vessels than in the vehicle administration group,6.255 ± 0.807 mg/sponge,16.351 ± 1.836 mg/sponge,showed still more neovascularized blood vessels than in group 2,showed a significant increase in hemoglobin content as compared to group 1 (0.1% BSA-physiological saline solution group) and group 2 (b-FGF single administration group),14.995 ± 2.307 mg/sponge,≥ 2000 mg/kg
